# Square brackets hold non-standard residues; d marks the D form. Ends that are not written are not given here.
# How the values were obtained:
# Format in all cases: biochemical
# [1] = tested on: FVIII deficient human plasma; experiment: Thrombin generation assay (TGA) in FVIII-deficient plasma; conditions: for TGA activity in the presence of FVIII: 0.1 U/mL FVIII, compound 7 100-6.3 uM, compounds 8 and 9 50-3.1 uM
# FIXa = FIXa (Homo sapiens, UniProt P00740); experiment: FXa generation assay with human FIXa; set-up: purchased Haematologic Technologies; conditions: FXa generation assay, 10 nM hFIXa, 100 nM hFX; class symbols
# FIXa, sequence (P00740 47-191 limits assumed): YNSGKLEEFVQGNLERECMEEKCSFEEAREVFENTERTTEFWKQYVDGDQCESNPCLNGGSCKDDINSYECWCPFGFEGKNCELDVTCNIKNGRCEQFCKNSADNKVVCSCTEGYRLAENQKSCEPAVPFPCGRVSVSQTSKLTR
# FIXa, sequence (P00740 227-461 limits assumed): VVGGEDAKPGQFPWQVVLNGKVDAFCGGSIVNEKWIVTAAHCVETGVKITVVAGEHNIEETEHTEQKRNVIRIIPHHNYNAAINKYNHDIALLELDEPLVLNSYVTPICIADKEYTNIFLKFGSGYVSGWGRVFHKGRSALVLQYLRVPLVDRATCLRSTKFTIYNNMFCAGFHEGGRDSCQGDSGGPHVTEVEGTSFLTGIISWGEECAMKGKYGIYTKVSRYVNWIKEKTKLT
# [2] = tested on: FVIII deficient human plasma; experiment: Rotational thromboelastometry (ROTEM) in FVIII-deficient human plasma; conditions: human HemA plasma (HRF)
# Description: Compounds of the present disclosure were tested by rotational thromboelastometry to evaluate coagulation parameters such as clotting time (CT), α-angle, clot formation time (CFT), maximum clot firmness (MCF). Briefly, lyophilized and citrated FVIII deficient human plasma (Siemens) was reconstituted with 1 mL of distilled water, allowed to stand for 20 min at RT and mixed well before use. Alternatively, an aliquot of citrated (non-lyophilized) FVIII deficient human plasma (HRF, George King, Precision Biologics, or real-time donors) was thawed for 10 min in a 37° C. water bath and when needed centrifuged at 2800 g for 5 min at 25° C. FVIII deficient plasma was spiked with lyophilized platelets (Helena Laboratories, final concentration 0.5×10^8 cells/ml) and compounds, FVIII, or both compound and FVIII. Dilutions of compounds of the present disclosure and controls, such as FVIII, were prepared in PBS (—Ca, —Mg). Next, 300 μl of the spiked plasma was transferred to a ROTEM cup already containing 20 μl of StarTEM (concentrated calcium chloride solution) and 20 μl of lipidated TF (American Diagnostica, final concentration 10 fM) or Kaolin (Sigma-Aldrich, final concentration 0.4 μg/ml) and recording was initiated. The cups were maintained at 37° C. during the testing.
# [3] = Precision Biologics FVIII-deficient plasma (2), first Baseline (2) series, 2.5 μM
# [4] = Precision Biologics FVIII-deficient plasma (2), first Baseline (2) series, 5 μM
# [5] = Precision Biologics FVIII-deficient plasma (2), first Baseline (2) series, 10 μM
# [6] = Precision Biologics FVIII-deficient plasma (2), second Baseline (2) series, 2.5 μM
# [7] = Precision Biologics FVIII-deficient plasma (2), second Baseline (2) series, 5 μM
# [8] = Precision Biologics FVIII-deficient plasma (2), second Baseline (2) series, 10 μM
# [9] = Precision Biologics FVIII-deficient plasma (2), second Baseline (2) series, 20 μM
Substance,"Thrombin Above Baseline (nM) [1, 3]","Thrombin Above Baseline (nM) [1, 4]","Thrombin Above Baseline (nM) [1, 5]",Vmax (FIXa),further results
"GWKPFLWDPRVLLSSGWYGRG [Compound 7, reference compound]",–,–,–,–,TGA activity in the presence of FVIII [1]: competes with FVIII
"GWKPFLWDPRVLLSSGWYGRGGGGGWKPFLWDPRVLLSSGWYGRG [Compound 9, reference compound]",–,–,–,–,TGA activity in the presence of FVIII [1]: competes with FVIII
PRIRSVGPGSRSASGKLTCLASYCWLFWTGIA,++ (11-20 nM (1) or 30-59 nM (2) (++)),+++ (21-30 nM (1) or 60-90 nM (2) (+++)),+++ (21-30 nM (1) or 60-90 nM (2) (+++)),(++++) ((++++)>3),–
PRIRTSGPGSRSASGKLTCLASYCWLFWTGIA,+ (1-10 nM (1) or 1-29 nM (2) (+)),++ (11-20 nM (1) or 30-59 nM (2) (++)),++ (11-20 nM (1) or 30-59 nM (2) (++)),(++++) ((++++)>3),–
PRIRTVGPGSRSASGKSTCLASYCWLFWTGIA,+ (1-10 nM (1) or 1-29 nM (2) (+)),++ (11-20 nM (1) or 30-59 nM (2) (++)),+++ (21-30 nM (1) or 60-90 nM (2) (+++)),(++++) ((++++)>3),"Thrombin Above Baseline (nM) [1, 6]: + (1-10 nM (1) or 1-29 nM (2) (+)); Thrombin Above Baseline (nM) [1, 7]: +++ (21-30 nM (1) or 60-90 nM (2) (+++)); Thrombin Above Baseline (nM) [1, 8]: ++++ (>30 nM (1) or >90 nM (2) (++++)); Thrombin Above Baseline (nM) [1, 9]: ++++ (>30 nM (1) or >90 nM (2) (++++))"
PRIRTVGPSSRSASGKLTCLASYCWLFWTGIA,+ (1-10 nM (1) or 1-29 nM (2) (+)),++ (11-20 nM (1) or 30-59 nM (2) (++)),++ (11-20 nM (1) or 30-59 nM (2) (++)),(++++) ((++++)>3),–
PRIRTVGSGSRSASGKLTCLASYCWLFWTGIA,+ (1-10 nM (1) or 1-29 nM (2) (+)),+ (1-10 nM (1) or 1-29 nM (2) (+)),+ (1-10 nM (1) or 1-29 nM (2) (+)),(++++) ((++++)>3),–
PRIRTVSPGSRSASGKLTCLASYCWLFWTGIA,++ (11-20 nM (1) or 30-59 nM (2) (++)),+++ (21-30 nM (1) or 60-90 nM (2) (+++)),++++ (>30 nM (1) or >90 nM (2) (++++)),(++++) ((++++)>3),–
PRIRTVSPGSRSASGKSTCLASYCWLFWTGIA,–,–,–,(++++) ((++++)>3),"Thrombin Above Baseline (nM) [1, 6]: ++ (11-20 nM (1) or 30-59 nM (2) (++)); Thrombin Above Baseline (nM) [1, 7]: +++ (21-30 nM (1) or 60-90 nM (2) (+++)); Thrombin Above Baseline (nM) [1, 8]: ++++ (>30 nM (1) or >90 nM (2) (++++)); Thrombin Above Baseline (nM) [1, 9]: ++++ (>30 nM (1) or >90 nM (2) (++++))"
PRISTVGPGSRSASGKLTCLASYCWLFWTGIA,+ (1-10 nM (1) or 1-29 nM (2) (+)),+ (1-10 nM (1) or 1-29 nM (2) (+)),+ (1-10 nM (1) or 1-29 nM (2) (+)),(++++) ((++++)>3),–
PRIrTVGPGSrSASGKLTCLASYCWLFWTGIA (PRI[dR]TVGPGS[dR]SASGKLTCLASYCWLFWTGIA; not fully specified; printed as PRIrTVGPGSrSASGKLTCLASYCWLFWTGIA; cysteine pairing not given here),++ (11-20 nM (1) or 30-59 nM (2) (++)),+++ (21-30 nM (1) or 60-90 nM (2) (+++)),+++ (21-30 nM (1) or 60-90 nM (2) (+++)),–,"Thrombin Above Baseline (nM) ([1]; HRF FVIII-deficient plasma (1), 2.5 μM): ++ (11-20 nM (1) or 30-59 nM (2) (++)); Thrombin Above Baseline (nM) ([1]; HRF FVIII-deficient plasma (1), 2.5 μM, listed as PRIRTVGPGSRSASGKLTCLASYCWLFWTGIA): + (1-10 nM (1) or 1-29 nM (2) (+)); Thrombin Above Baseline (nM) ([1]; HRF FVIII-deficient plasma (1), 5 μM): +++ (21-30 nM (1) or 60-90 nM (2) (+++)); Thrombin Above Baseline (nM) ([1]; HRF FVIII-deficient plasma (1), 5 μM, listed as PRIRTVGPGSRSASGKLTCLASYCWLFWTGIA): ++ (11-20 nM (1) or 30-59 nM (2) (++)); Thrombin Above Baseline (nM) ([1]; HRF FVIII-deficient plasma (1), 10 μM): +++ (21-30 nM (1) or 60-90 nM (2) (+++)); Thrombin Above Baseline (nM) ([1]; HRF FVIII-deficient plasma (1), 20 μM): +++ (21-30 nM (1) or 60-90 nM (2) (+++))"
PRIrTVGPGSrSASGKLTCLASYCWLFWTGIA [Compound 23],–,–,–,(++++) ((++++)>3),"Clotting time, sec (avg.) ([2]; 2.5 μM): 983 s; α-angle, degrees (avg.) ([2]; 2.5 μM): 13 degrees; Clotting time, sec (avg.) ([2]; 5 μM): 673 s; α-angle, degrees (avg.) ([2]; 5 μM): 22 degrees; Clotting time, sec (avg.) ([2]; 10 μM): 486 s; α-angle, degrees (avg.) ([2]; 10 μM): 32 degrees; Clotting time, sec (avg.) ([2]; 20 μM): 472 s; α-angle, degrees (avg.) ([2]; 20 μM): 39 degrees"
PRSRTVGPGSRSASGKLTCLASYCWLFWTGIA,++ (11-20 nM (1) or 30-59 nM (2) (++)),+++ (21-30 nM (1) or 60-90 nM (2) (+++)),+++ (21-30 nM (1) or 60-90 nM (2) (+++)),(++++) ((++++)>3),–

# From patent US9486507B2, “Pro-coagulant compounds and methods of use thereof” (priority 2011, dated 2016)
